This assay has as its target NA of influenza B clinical isolates (Influenza B virus, UniProt A0A1X9RX69). The class given is biochemical.

The term IC50 denotes the midpoint of a concentration-inhibition curve.

The compound `CCC(CC)[C@H](NC(C)=O)[C@@H]1[C@H](O)[C@@H](C(=O)O)C[C@H]1N=C(N)N` [Peramivir, peramivir] yielded an IC50 of 0.47 ± 0.4 nM.

For the origin of these results see PMC6237300, “Influenza B viruses circulated during last 5 years in Mongolia” (PLoS ONE, 2018).
